We go through three molecules from patent US20040073961A1, “Nematode screening assay” (priority 2002, published 2004).

Read-outs that look alike come from different tables or passages of the source.

Test [1] addresses T1, rat I7 OR (Rattus norvegicus, UniProt P23270).
T1 sequence (P23270 1-327): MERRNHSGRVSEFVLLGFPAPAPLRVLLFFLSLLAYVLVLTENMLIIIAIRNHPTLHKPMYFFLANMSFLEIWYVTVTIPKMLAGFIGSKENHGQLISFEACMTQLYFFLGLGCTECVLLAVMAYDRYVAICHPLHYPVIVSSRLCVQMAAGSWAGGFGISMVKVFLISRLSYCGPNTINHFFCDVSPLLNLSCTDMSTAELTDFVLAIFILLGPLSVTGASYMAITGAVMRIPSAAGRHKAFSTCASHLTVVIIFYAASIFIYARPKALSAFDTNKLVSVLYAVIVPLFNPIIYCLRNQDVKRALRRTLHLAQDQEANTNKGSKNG
The test is described as follows: Population chemotaxis assay for volatile substances, Odr-10::I7 transgenic worms (I7 expressed in AWA neurons). The test is classed as in vivo, C. elegans. Further details: expressed in transfected cells; host or cells: transgenic C. elegans; AWB neurons (str-1 promoter) or AWA neurons (odr-10 promoter). The method, then:
(§1) (Bargmann, C. I., Hartwieg, E., and Horvitz, H. R. (1993) Cell 74, 515-527). One microliter of odorant and one microliter 1 M sodium azide were added at one end of the dish (zone 1), and one microliter of solvent (ethanol) and one microliter 1 M sodium azide were added at the opposite end (zone 6) as a control. Sodium azide was included to anaesthetize animals entering zones 1 and 6.
(§2) Where reported, worms were exposed to a 1:100 dilution of diacetyl, undiluted benzaldehyde, undiluted octanal and 1:5, 1:10, 1:15, 1:25, 1:50, 1:100, and 1:1000 dilutions of octanal (Sigma Chemical Co., St. Louis, Mo.). Population assay data for N2 and transgenic worm lines were compared using the two-tailed t test.
AWA neurons mediate chemotaxis to volatile attractants in C. elegans. […] It was expected that the activation of I7 with undiluted octanal in these transgenic worms would counteract the volatile avoidance to undiluted octanal observed in wild-type worms. Chemotaxis assays were performed with four independently derived C. elegans transgenic strains expressing I7 (FIG. 6). […] While most of the wildtype C. elegans were repelled toward zone 6, a significant number of odr-10::I7 transgenic worms was found in the proximity to the odorant source (FIGS. 6B and 3A). In order to investigate the specificity of the decrease in the aversive response of Odr10::I7 transgenic worms to undiluted octanal and to confirm that this decrease was due to the interaction of octanal with I7, chemotaxis assays with Odr-10::I7 transgenic worms were performed in which diacetyl and benzaldehyde were used.

Test [2] deals with wild-type C. elegans. The following applies: known from the literature, cited from earlier work.
Test [3] deals with T1, rat I7 OR. The experiment in a line: Population chemotaxis assay for volatile substances, Str-1::I7 transgenic worms (I7 expressed in AWB neurons). The test is classed as in vivo, C. elegans. Further details: expressed in transfected cells; host or cells: transgenic C. elegans; AWB neurons (str-1 promoter) or AWA neurons (odr-10 promoter). The method, then:
as §1, §2
To investigate the possibility to functionally express mammalian ORs in C. elegans, wild-type nematodes were first characterized for their ability to detect and respond to increasing dilutions of volatile chemicals and particularly to octanal, an agonist for the rat I7 OR (FIG. 4B; Zhao, H., Ivic, L., Otaki J. M., Hashimoto, M., Mikoshiba, K., and Firestein, S. (1998) Science 279, […]; Araneda, R. C., Kini, A. D., and Firestein, S. (2000) Nature Neurosci. 12, 1248-1255). […] Higher dilutions of octanal gave chemotaxis indexes close to 0 indicating a neutral response of the wild-type worms to lower concentrations of the odorant. […] As AWB neurons mediate volatile avoidance in C. elegans, it was expected that the expression of the rat I7 OR in AWB neurons and its activation with a 1:10 dilution of octanal would counteract the olfactory attraction to 1:10 octanal observed in wild-type worms. I7 transgenic worms were generated, in which I7 expression was driven by the str-1 promoter, a controlling element exclusively functional in the two AWB neurons (Troemel, E. R., Kimmel, B. E., and Bargmann, C. I. (1997) Cell 91, 161-169). Five independently derived C. elegans transgenic strains expressing I7 were tested (FIG. 5). […]

Test [4] deals with wild-type C. elegans. The experiment in a line: Population chemotaxis assay for volatile substances, wild-type worms. The test is classed as in vivo. The method, then: FIG. 3A: Chemotaxis assays on adult C. elegans to volatile compounds. […] One microliter of odorant and one microliter 1 M sodium azide were added at zone 1, and one microliter of control solvent and one microliter 1 M sodium azide were added at zone 6.
as §1, §2

The target of test [5] is T1, rat I7 OR. The following applies: from the literature (Zhao 1998; Araneda 2000); cited from earlier work.
Where [6] appears, read: specificity controls: diacetyl and benzaldehyde, Odr-10::I7 transgenic worms.
The mark [7] stands for this setting: specificity controls: 1:100 dilution of diacetyl, pure benzaldehyde, Str-1::I7 transgenic worms.

For the molecule `CC(=O)C(C)=O` [diacetyl], the “change of chemotaxis index in relation to control wild-type worms” value (“change of chemotaxis index in relation” below) in test [1] (setting [6]) and in test [3] (setting [7]) was “did not change” throughout. The “behavioral response of wild-type C. elegans” value in test [2] (1:100 dilution of diacetyl) is “induce attraction”.
Take `CCCCCCCC=O` [octanal]: the “change of chemotaxis index in relation” value in test [1] (undiluted octanal, four Odr-10::I7 transgenic worm strains, statistically significant) was “increased dramatically”; in test [3] (1:10 octanal, five Str-1::I7 transgenic worm strains, statistically significant) it was “decreased dramatically”. The chemotaxis index result in test [4] (1:10 dilution of octanal, wild-type worms, scored after 1 hour) was “+0.5”; in test [4] (higher dilutions of octanal than 1:10, wild-type worms, neutral response), around 0; in test [4] (undiluted octanal, 1 microliter, wild-type worms, scored after 1 hour, +1.0 total attraction, −1.0 total repulsion), −0.6. The “activity at the I7 receptor” value in test [5] is “agonist”.
With `O=Cc1ccccc1` [benzaldehyde], the “change of chemotaxis index in relation” value in test [1] (setting [6]) and in test [3] (setting [7]) was “did not change” each time. In test [2] (pure benzaldehyde), the “behavioral response of wild-type C. elegans” value was “induce aversion”. In test [5], the “activity at the I7 receptor” value was “do not activate”.
